Test [1] has as its target T1, LHGFR0N7C.
T1 construct: FRET sensor: LhgR truncated by seven C-terminal amino acids between mTFP (N-terminus) and Venus (C-terminus)
As to the kind of experiment: FRET titration of purified sensor with D-2-HG (10 nM to 2 mM) in 50 mM Tris-HCl pH 7.4, Venus/mTFP emission ratio (excitation 430 nm). The following applies: SD, n = 3; read-out: apparent Kd in response to D-2-HG. The test is classed as binding. The procedure:
Purified L-2-HG biosensors and different compounds were diluted by 50 mM Tris-HCl buffer (pH 7.4), mixed together in a black 96-well plate at a volume ratio of 3:1, and the fluorescence intensities were measured using an EnSight microplate reader (PerkinElmer, USA) with excitation at 430 nm, emission at 485 nm (mTFP) and 528 nm (Venus). The dose-response curves were fitted by OriginPro 2016 software (OriginLab) according to the following formula:1 R=Rmax+Rmin−Rmax/1+([L-2-HG]/Kd)^p where R, Rmin, and Rmax refer to the emission ratio of Venus to mTFP, ratio in the absence of L-2-HG, and ratio at saturation with L-2-HG, respectively. The [L-2-HG], Kd, and p refer to the L-2-HG concentration, apparent dissociation constant, and Hill slope, respectively. Emission spectra were recorded at 430 nm excitation, in steps of 2 nm. Excitation spectra were recorded using emission at 550 nm, excitation from 380 to 535 nm in steps of 2 nm. […]
column in the presence of only L-2-HG was used as the control. (c, d) Comparison of the […]
LHGFR0N7C (d). […]
response to D-2-HG (1.85 ± 0.91 mM; black line) than L-2-HG (7.22 ± 0.38 μM; red line). (e-j) Dose-response curves of LHGFR0N3C (e, g, and i) and LHGFR0N7C (f, h, and j) for increasing concentrations (10 nM to 2 mM) of L-2-HG were measured in the presence of 240 μM D-2-HG (e, f), 1 mM 2-KG (g, h), or 1 mM ATP (i, j). […]

Test [2] deals with T2, LHGFR0N3C.
T2 construct: FRET sensor: LhgR truncated by three C-terminal amino acids between mTFP (N-terminus) and Venus (C-terminus)
Briefly: FRET titration of purified sensor with L-2-HG in 50 mM Tris-HCl pH 7.4, Venus/mTFP emission ratio (excitation 430 nm, emission 528/485 nm), Hill-type fit. The format is binding. Conditions: SD, n = 3; read-out: apparent dissociation constant (Kd). The procedure: (§1) Purified L-2-HG biosensors and different compounds were diluted by 50 mM Tris-HCl buffer (pH 7.4), mixed together in a black 96-well plate at a volume ratio of 3:1, and the fluorescence intensities were measured using an EnSight microplate reader (PerkinElmer, USA) with excitation at 430 nm, emission at 485 nm (mTFP) and 528 nm (Venus). The dose-response curves were fitted by OriginPro 2016 software (OriginLab) according to the following formula:1 R=Rmax+Rmin−Rmax/1+([L-2-HG]/Kd)^p where R, Rmin, and Rmax refer to the emission ratio of Venus to mTFP, ratio in the absence of L-2-HG, and ratio at saturation with L-2-HG, respectively. The [L-2-HG], Kd, and p refer to the L-2-HG concentration, apparent dissociation constant, and Hill slope, respectively. Emission spectra were recorded at 430 nm excitation, in steps of 2 nm. Excitation spectra were recorded using emission at 550 nm, excitation from 380 to 535 nm in steps of 2 nm.
(§2) Fig. 3 Design and optimization of the LHGFR. a Schematic representation of the predicted conformational change of LhgR-based L-2-HG biosensor LHGFR in the absence or presence of L-2-HG. […] The emission ratio of Venus to mTFP increased (430 nm excitation) after L-2-HG binding. c Heap map of the truncating the N-terminal and C-terminal amino acids of LhgR to ∆Rmax. […] The emission ratio changes of both biosensors were measured in the presence of 240 μM D-lactate, L-lactate, L-2-HG, D-2-HG, or different intermediates of the TCA cycle and L-lysine catabolism. g, h Reversal of L-2-HG binding with LHGFR by conversion of L-2-HG to 2-KG. […] All data shown are means ± s.d. (n = 3 independent experiments).
(§3) Supplementary Figure 6 Dose-response curves of purified LHGFR variants truncated three to seven C-terminal amino acids in LhgR for L-2-HG. Dose-response curves of LHGFR0N3C […]
(§4) concentrations (10 nM to 2 mM) of L-2-HG were indicated. The maximum ratio change (∆Rmax), apparent dissociation constant (Kd), and R2 were shown in each figure. All data shown are means ± s.d. (n = 3 independent experiments). Source data are provided as a […]

In test [3] the target is T1, LHGFR0N7C. The description is as above. The test is classed as binding. The following applies: SD, n = 3; read-out: apparent dissociation constant (Kd). The procedure:
as §1, §2, §3, §4

The next test has as its target T3, LHGFR0N0C.
T3 construct: FRET sensor: full-length LhgR between mTFP (N-terminus) and Venus (C-terminus); pETDuet-1, Ni-chelating purification
The description is as above. The format is binding. The following applies: SD, n = 3; read-out: apparent dissociation constant (Kd). The procedure:
as §1, §2, §3, §4

Test [4] addresses T2, LHGFR0N3C. Briefly: FRET titration of purified sensor with L-2-HG (10 nM to 2 mM) added to human urine diluted with an equal volume of 50 mM Tris-HCl pH 7.4, mixed 3:1, Venus/mTFP emission ratio. The format is binding. The following applies: SD, n = 3. How it is done: (§5) Purified L-2-HG biosensors and different compounds were diluted by 50 mM Tris-HCl buffer (pH 7.4), mixed together in a black 96-well plate at a volume ratio of 3:1, and the fluorescence intensities were measured using an EnSight microplate reader (PerkinElmer, USA) with excitation at 430 nm, emission at 485 nm (mTFP) and 528 nm (Venus). The dose-response curves were fitted by OriginPro 2016 software (OriginLab) according to the following formula:1 R=Rmax+Rmin−Rmax/1+([L-2-HG]/Kd)^p where R, Rmin, and Rmax refer to the emission ratio of Venus to mTFP, ratio in the absence of L-2-HG, and ratio at saturation with L-2-HG, respectively. […] Emission spectra were recorded at 430 nm excitation, in steps of 2 nm. Excitation spectra were recorded using emission at 550 nm, excitation from 380 to 535 nm in steps of 2 nm.
(§6) In order to test the ability of LHGFR for quantitative analysis L-2-HG in different biological samples, purified LHGFR was diluted by 50 mM Tris-HCl (pH 7.4), while varying concentrations of L-2-HG were added into the serum and urine of a healthy adult and bacteria culture medium and filtered through a 0.22 μm filter, respectively. […] The mixtures of purified LHGFR and L-2-HG in different biological samples were then incubated in a black 96-well plate at a volume ratio of 3:1, and the emission ratios were determined using an EnSight microplate reader. […]

Test [5] addresses T1, LHGFR0N7C. The description is as above. The following applies: SD, n = 3. The test is classed as binding. How it is done:
as §5, §6

Test [6] has as its target T2, LHGFR0N3C. As to the kind of experiment: FRET titration of purified sensor with L-2-HG (10 nM to 2 mM) added to filtered bacterial culture medium, sensor in 50 mM Tris-HCl pH 7.4 mixed 3:1, Venus/mTFP emission ratio. The format is binding. The following applies: SD, n = 3. The procedure:
as §5, §6

Test [7] has as its target T1, LHGFR0N7C. The test is described as above. Conditions: SD, n = 3. The test is classed as binding. The procedure:
as §5, §6

For test [8], the system named is T2, LHGFR0N3C. As to the kind of experiment: Emission ratio of sensor in living carbon-starved E. coli BL21(DE3) versus exogenous L-2-HG (100 nM to 10 mM) at 60 min, 37 °C. Conditions: read-out: apparent Kd of LHGFR0N3C expressed in E. coli BL21(DE3); SD, n = 3. The format is cell-based. How it is done:
E. coli BL21(DE3) strains harboring either pETDuet-LHGFR0N3C, pETDuet-LHGFR0N7C, or pETDuet-LHGFR3N7C were grown to an OD600 of 0.6 in LB medium at 37 °C, after which the cells were induced overnight in the presence of 1 mM IPTG at 16 °C.
To characterize the sensitivity and specificity of LHGFR expressed in E. coli BL21(DE3), 90 μL cell suspensions following 8 h carbon starvation were mixed with 10 μL increasing concentrations of L-2-HG or other compounds, and then added into a black 96-well plate (total 100 μL/per well), the fluorescence intensities were determined using an EnSight microplate reader (PerkinElmer, USA) and the following instrument settings: excitation at 430 nm, emission at 485 nm (mTFP) and 528 nm (Venus), time intervals of 5 min, the temperature at 37 °C, and shake at 180 rpm. […] In order to analyze functions of CsiD and LhgO in endogenous L-2-HG anabolism and catabolism during carbon starvation, pETDuet-LHGFR0N3C, pETDuet-LHGFR0N7C, or pETDuet-LHGFR3N7C was transferred into E. coli MG1655(DE3) and its variants, and the assays were performed using the same procedure.

Test [9] concerns the target T2, LHGFR0N3C. Briefly: FRET titration of purified sensor with L-2-HG (10 nM to 2 mM) added to filtered human serum, sensor in 50 mM Tris-HCl pH 7.4 mixed 3:1, Venus/mTFP emission ratio. The format is binding. The following applies: SD, n = 3. The procedure:
as §5, §6

The target in test [10] is T1, LHGFR0N7C. The test is described as above. The format is binding. Conditions: SD, n = 3. The procedure: as §5, §6
For test [11], the system named is T2, LHGFR0N3C. As to the kind of experiment: Emission ratio of cytosolic sensor in HEK293FT cells permeabilized with 10 uM digitonin versus L-2-HG (10 nM to 10 mM) in Hank's balanced salt solution with 20 mM HEPES. The test is classed as cell-based. The following applies: read-out: apparent Kd of LHGFR0N3C expressed in HEK293FT cells; SD, n = 3. The procedure: To characterize the sensitivity and specificity of LHGFR expressed in HEK293FT cells, cells were trypsinized 48 h following transfection and suspended in 1× Hank’s balanced salt solution supplemented with 20 mM HEPES. […] Digitonin at a concentration of 10 μM was used to induce cell permeabilization and deplete intracellular L-2-HG for in vivo response curves construction. Then, the fluorescence intensities were determined by a SpectraMax i3 fluorescence plate reader (Molecular Devices, USA) with excitation at 430 nm and emission at 485 nm (mTFP) and 528 nm (Venus). Basal L-2-HG concentration in HEK293FT cells under physiological conditions was determined by substituting the emission ratios of non-permeabilized HEK293FT cells into the calibrated in vivo response curves.

The next test deals with HEK293FT cells. As to the kind of experiment: Hypoxia-induced L-2-HG production in LHGFR-expressing HEK293FT cells with or without 5 mM DMαKG. The following applies: 5 mM, hypoxic conditions, 24 h. The test is classed as cell-based, human. How it is done:
HEK293FT cells were cultured in high-glucose Dulbecco’s modified eagle medium (DMEM) supplemented with 10% (vol/vol) fetal bovine serum (FBS), 100 units mL^−1 penicillin, and 100 μg mL^−1 streptomycin (all purchased from ThermoFisher, USA), and kept at 37 °C in humidified air containing 5% CO2. For hypoxia experiments, cells were kept in a compact O2 and CO2 subchamber controller (ProOx C21, BioSpherix, USA) at 2% O2, 5% CO2, and balanced with N2 for 24 h. For the construction of LHGFR expressing cell, HEK293FT cells were plated in 24-well plates so that they reached 70-90% confluency 24 h after plating, the medium was refreshed 2 h before transfection.
The preparation of cell suspensions and the measurement of emission ratios were performed using the same procedure. The background fluorescence was subtracted at each emission wavelength.

In test [12] the target is LhgR (Pseudomonas putida W619). Briefly: SEC; gel filtration on Superdex 200 10/300 GL against protein mass standards, compared with SDS-PAGE; 50 mM sodium phosphate, 150 mM sodium chloride, pH 7.2.

We go through four molecules from PMC8206213, “An L-2-hydroxyglutarate biosensor based on specific transcriptional regulator LhgR” (Nature Communications, 2021).

As for `O=C(O)CC[C@@H](O)C(=O)O` [D-2-HG, D-2-hydroxyglutarate], on LHGFR0N7C [1], the Kd came out at 1850 µM.
As to `O=C(O)CC[C@H](O)C(=O)O` [L-2-HG, L-2-hydroxyglutarate], the Kd came out at 29.3 µM on LHGFR0N3C [2]; 7.22 µM on LHGFR0N7C [3]; 2.74 µM on LHGFR0N0C; 29.5 µM at LHGFR0N3C [4]; 7.77 µM at LHGFR0N7C [5]; 36.9 µM at LHGFR0N3C [6]. The Kd turned out to be 6.65 µM at LHGFR0N7C [7]; 892 µM with LHGFR0N3C [8]; 27.8 µM on LHGFR0N3C [9]; 8.35 µM on LHGFR0N7C [10]; 43.8 µM with LHGFR0N3C [11].
Regarding `COC(=O)CCC(=O)C(=O)OC` [dimethyl-2-ketoglutarate], the “Effect on emission ratio of LHGFR0N3C” value in the test with HEK293FT cells is given as “significantly increased the emission ratio of LHGFR0N3C under hypoxic conditions”.
For LhgR (natural protein), the stoichiometry N – broadly, a count of units in the complex or per binding partner – in [12] turned out to be 2.
